This assay concerns primary OA. The assay is described as follows: Randomized, single blind, placebo-controlled trial in painful osteoarthritis. Type of assay: in vivo, patients. The note with it: 42 days treatment. On the procedure:
The present trial was earned out to evaluate the effectiveness of the composition of the invention in the treatment of painful OA [a randomized, single blind, placebo-controlled trial]. 120 patients (37 males and 83 females) with primary OA received either the composition of the invention (500 mg twice daily) or Glucosamine sulphate (750 mg twice daily) or placebo (500 mg twice daily) or combination of the composition of the invention and Glucosamine sulphate for 42 days. During the treatment period two follow up visits on day 21st and day 42nd, efficacy was evaluated in terms of change in the intensity/severity of symptoms (as measured by VAS, WOMAC scale) and examination by orthopaedician (as measured by CGIC).

With `N[C@H]1C(O)O[C@H](CO)[C@@H](O)[C@@H]1O.O=S(=O)(O)O` (stereo partly shown) [Glucosamine sulphate], the “signs and symptoms of OA” value is “Overall improvement”.

Values taken from patent publication US9345258B2, “Synergistic phytochemical composition and a process for preparation thereof” (priority 2011, dated 2016).
